# System: Southern Root-Knot Nematode (Meloidgyne incognita)
# Assay: Test on southern root-knot nematode (soil incorporation)
# Assay type: in vivo
# Parameters: key: 0: No knot was formed; 1: Knots were formed to a slight degree; 2: Knots were formed to a moderate degree; 3: Knots were formed to a heavy degree; 4: Knots were formed to the heaviest degree
# Details: 7 ml of 1600 ppm solution to 300 ml contaminated soil, tomato seedling, three to four weeks after transplantation
# Procedure: Test on Southern Root-Knot Nematode (Meloidgyne incognita) (Soil Incorporation)
# To 300 ml of the soil contaminated by southern root-knot nematode, 7 ml of a chemical solution having the concentration of the compound of the present invention adjusted to be 1600 ppm, is poured, followed by mixing so that the compound is uniformly dispersed. The treated soil is put into a pot (diameter: 9 cm, height: 8 cm), and then a tomato seedling in 2-leaf stage is transplanted and placed in a greenhouse. After three to four weeks from the transplantation of the tomato, the root knot index is determined based on the following standards. […] For example, the compound Nos. 1-25, 1-26, 1-73, 1-100, 1-122, 1-123, 1-125, 1-127, 1-130, 1-131, 1-133, 1-136, 1-137, 1-139, 1-140, 1-172, 1-173, 1-177, 5-5, 5-9, 5-11, 5-16, 5-20, 8-2, 8-5, 13-2, 13-4, 13-6, 13-7, 13-18, 13-19, 13-44, 13-45, 16-32, 16-37 and 16-38 were at a level of a root knot index of not more than 1.
row,Molecule,root knot index
1,"2-fluoro-N-[2-[(2,2,3,3,-tetrafluoro-5-methyl-1,4-benzodioxan-6-yl)carbonyl]-2-propyl]benzamide [Compound No. 16-37]",1
2,"CC(C)(NC(=O)c1c(F)cccc1F)C(=O)c1ccc(OS(C)(=O)=O)cc1 [Compound No. 1-25, 2,6-difluoro-N-[(1,1-dimethyl-4′-methylsulfonyloxy)phenacyl]benzamide]",1
3,"CC(C)(NC(=O)c1c(F)cccc1F)C(=O)c1ccc(OS(=O)(=O)C(F)(F)F)cc1 [Compound No. 1-26, 2,6-difluoro-N-[(1,1-dimethyl-4′-trifluoromethylsulfonyloxy)phenacyl]benzamide]",1
4,"CC(C)(NC(=O)c1ccccc1C(N)=O)C(=O)c1ccc(Cl)cc1 [Compound No. 1-122, 2-aminocarbonyl-N-[(4′-chloro-1,1-dimethyl)phenacyl]benzamide]",1

# System: not given
# Assay: not given
# Details: not given
row,Molecule,melting point
1,"CC(C)(NC(=O)c1c(F)cccc1F)C(=O)c1ccsc1 [Compound No. 6-5, 2,6-difluoro-N-[1-methyl-1-(3-thenoyl)ethyl]benzamide]",139 to 142 °C
2,"CC(C)(NC(=O)c1c(F)cccc1F)C(=O)c1ccc(C(F)(F)F)cn1 [Compound No. 8-43, 2,6-difluoro-N-[2-(5-trifluoromethyl-2-pyridylcarbonyl)-2-propyl]benzamide]",116 to 119 °C
